# “Also recorded” adds a separate entry of the source.
# Target: T1, hKV1.2 (Homo sapiens, UniProt P16389)
# T1 construct: GFP (vector pCMV6-AC-GFP); host or cells: CHO cells, transient transfection
# Test: Conductance-voltage (G-V) relationship of KV1.2
# Assay type: cell-based
# Protocol: Mostly, scorpion toxins inhibit the KV channels by physically occluding the pore region of the channel thereby preventing the flow of K^+ ions. […] To confirm the blocking mechanism of Cm39 we determined the conductance–voltage (G–V) relationship for KV1.2 in the absence and presence of the toxin. Whole-cell currents of KV1.2 expressing CHO cells were recorded by applying the 300 ms long depolarization pulses ranging from −70 to +80 in 10 mV steps from Vh of −120 mV. […] The conductance values were calculated for each voltage step, normalized to the maximum conductance and plotted as a function of membrane potential (Em) as shown in Figure 4E. […] The midpoint voltage (V50) of the G–V relationship in the control solution (−1.0 ± 4.8, n = 4) was statistically similar to the V50 value at equilibrium block with 65 nM sCm39 (1.6 ± 4.0, n = 4) as shown in Figure 4F.
# Those plasmids which lack a fluorescent tag were co-transfected with a plasmid encoding GFP. Transfections were performed at a GFP:channel DNA molar ratio of 1:10 using the Lipofectamine 2000 kit (Invitrogen) according to the manufacturer’s protocol. GFP expressing cells were identified with the Nikon TE 2000U fluorescence microscope (Nikon, Tokyo, Japan) and used for current recordings (~60–70% success rate for co-transfection). Generally, currents were recorded 24 to 48 h post transfection.
# For the measurement of KV1.x, mKCa1.1 and NaV1.x currents the extracellular solution was composed of (in mM) 145 NaCl, 5 KCl, 2.5 CaCl2, 1 MgCl2, 10 HEPES and 5.5 glucose, pH 7.35. In the HK-150 and Na^+-free bath solution bath all Na^+ was substituted by K^+ or Choline-Cl, respectively, other ingredients remained unchanged. In the various TEA^+-containing solutions, Na^+ was substituted by tetraethylammonium-Cl in equimolar concentration (Figure 3). The bath solution for KCa2.2 and KCa3.1 consisted of (in mM) 145 L-Aspartic Na^+ salt, 5 KCl, 2.5 CaCl2, 1 MgCl2, 5.5 glucose and 10 HEPES, pH 7.4 and for KV11.1 (in mM) 140 Choline-Cl, 5 KCl, 2 MgCl2, 2 CaCl2, 10 HEPES, 20 glucose and 0.1 CdCl2, pH 7.35. The osmolarity of bath solutions was ranging between 302 to 308 mOsm/L. A total of 0.1 mg/mL bovine serum albumin (BSA, Sigma-Aldrich, Budapest, Hungary) was added to all the bath solutions before the patch-clamp assay to avoid toxin adsorption to the plastic surfaces of the perfusion system. Internal or pipette solution for recording KV1.x and mKCa1.1 currents consisted of (in mM) 140 KF, 2 MgCl2, 1 CaCl2, 11 EGTA and 10 HEPES, pH 7.22. […]
# Whole-cell currents were recorded in voltage-clamped cells following standard protocols by using a Multiclamp 700B amplifier connected to a computer with Axon Digidata1440 digitizer and for data acquisition, Clampex 10.7 software was used (Molecular Devices). […]
# T1 sequence (P16389 whole entry): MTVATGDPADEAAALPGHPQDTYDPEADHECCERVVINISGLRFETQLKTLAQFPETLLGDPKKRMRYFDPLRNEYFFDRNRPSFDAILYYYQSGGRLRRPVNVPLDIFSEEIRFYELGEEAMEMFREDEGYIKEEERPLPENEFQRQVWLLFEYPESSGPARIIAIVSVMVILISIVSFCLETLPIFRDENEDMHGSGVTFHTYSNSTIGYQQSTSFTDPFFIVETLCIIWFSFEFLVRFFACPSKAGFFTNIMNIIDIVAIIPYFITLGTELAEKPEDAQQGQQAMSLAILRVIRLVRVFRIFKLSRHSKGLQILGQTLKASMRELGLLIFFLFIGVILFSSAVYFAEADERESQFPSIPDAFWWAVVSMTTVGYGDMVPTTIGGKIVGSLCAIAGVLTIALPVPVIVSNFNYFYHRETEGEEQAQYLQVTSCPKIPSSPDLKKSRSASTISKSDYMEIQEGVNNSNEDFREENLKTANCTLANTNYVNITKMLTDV
compound,measurement,setting,value
CC[C@H](C)[C@@H]1NC(=O)[C@H](C)NC(=O)[C@H](C)NC(=O)[C@H](CCCCN)NC(=O)[C@@H]2CSSC[C@@H](C(=O)N[C@@H](Cc3ccc(O)cc3)C(=O)N[C@@H](Cc3ccc(O)cc3)C(=O)O)NC(=O)[C@H](CCCCN)NC(=O)[C@@H]3CSSC[C@H](NC(=O)[C@H](CCC(=O)O)NC(=O)[C@H](CO)NC(=O)[C@H](CO)NC(=O)[C@H](CO)NC(=O)[C@H](CCCCN)NC(=O)[C@@H](NC(=O)[C@H](CCCCN)NC(=O)[C@H](Cc4c[nH]cn4)NC(=O)[C@H](CC(N)=O)NC(=O)[C@@H](NC(=O)[C@H](Cc4ccccc4)NC(=O)[C@@H](N)[C@@H](C)O)[C@@H](C)CC)CSSC[C@H](NC(=O)[C@H](CCCCN)NC(=O)CNC(=O)[C@H](CO)NC(=O)[C@H](C)NC(=O)[C@H](CCCNC(=N)N)NC(=O)CNC1=O)C(=O)N[C@@H]([C@@H](C)CC)C(=O)N[C@@H](CC(N)=O)C(=O)N[C@@H](CO)C(=O)N[C@@H]([C@@H](C)O)C(=O)N3)C(=O)N[C@@H](CC(C)C)C(=O)N1CCC[C@H]1C(=O)N[C@@H](C)C(=O)N2 [Cm39],effect on voltage dependence of steady-state activation (conductance–voltage relationship),"65 nM, CHO cells",not altered; also recorded: completely insensitive
same,effect on voltage dependence of steady-state activation (conductance–voltage relationship),"65 nM, CHO cells, listed as sCm9",did not affect the voltage dependence of steady-state activation
same,"Mann–Whitney p, V50 with vs without toxin","65 nM, ns = not significant",0.89
same,midpoint voltage V50 of the G–V relationship,"equilibrium block with 65 nM sCm39, n = 4, control solution −1.0 ± 4.8, n = 4, CHO cells, ± SEM",1.6 ± 4.0
